Measurements as given in patent US20040049072A1, “RXR modulators with improved pharmacologic profile” (priority 1999, published 2004).
Entries after “also recorded” stand apart in the source; their conditions may differ. Where two headings read alike, the source gives them in different places.

Tests used:
RXRα:PPARγ heterodimer = target: T1, RXRα:PPARγ heterodimer (Homo sapiens, UniProt P19793); assay: RXR:PPARγ heterodimer co-transfection assay in CV-1 cells; assay type: cell-based
T1 construct: expressed in transfected cells; host or cells: CV-1 cells
T1 sequence (P19793 1-462): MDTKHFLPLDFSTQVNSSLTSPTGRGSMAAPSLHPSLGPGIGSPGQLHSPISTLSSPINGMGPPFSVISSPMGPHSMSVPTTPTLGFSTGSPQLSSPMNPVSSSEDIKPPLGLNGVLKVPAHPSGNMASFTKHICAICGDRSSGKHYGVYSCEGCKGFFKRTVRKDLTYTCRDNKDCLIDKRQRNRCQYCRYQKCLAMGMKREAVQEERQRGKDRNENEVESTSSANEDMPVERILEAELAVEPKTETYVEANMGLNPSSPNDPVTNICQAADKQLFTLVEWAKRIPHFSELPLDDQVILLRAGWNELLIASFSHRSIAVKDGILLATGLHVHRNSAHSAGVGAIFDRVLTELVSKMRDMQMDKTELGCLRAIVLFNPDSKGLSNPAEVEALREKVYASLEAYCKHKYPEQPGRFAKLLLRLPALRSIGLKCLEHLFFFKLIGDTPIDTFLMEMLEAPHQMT
T1 sequence (P37231 1-505 partner): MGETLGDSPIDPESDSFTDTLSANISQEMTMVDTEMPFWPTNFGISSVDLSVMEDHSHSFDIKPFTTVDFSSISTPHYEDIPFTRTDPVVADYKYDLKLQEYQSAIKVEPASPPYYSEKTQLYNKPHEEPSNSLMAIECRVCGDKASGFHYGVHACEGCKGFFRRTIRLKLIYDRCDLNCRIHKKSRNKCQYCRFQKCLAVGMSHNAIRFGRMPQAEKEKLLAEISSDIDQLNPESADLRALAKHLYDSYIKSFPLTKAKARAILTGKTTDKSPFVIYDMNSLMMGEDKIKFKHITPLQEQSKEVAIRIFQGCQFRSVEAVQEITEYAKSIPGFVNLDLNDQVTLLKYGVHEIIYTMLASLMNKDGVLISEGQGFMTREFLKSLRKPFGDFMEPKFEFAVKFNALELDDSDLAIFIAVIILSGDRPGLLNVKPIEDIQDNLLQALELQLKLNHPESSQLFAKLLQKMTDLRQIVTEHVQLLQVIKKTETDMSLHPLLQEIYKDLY
Experimental: (§1) For determination of agonist activity in the context of the RXR:RAR heterodimer or the RXR:PPARγ heterodimer, media containing compounds of the present invention in concentrations ranging from 10^−10 to 10^−5 M were added to the cells.
(§2) Compounds of the present invention were also tested for the ability to synergize with a PPARγ agonist in the context of an RXR heterodimer. […] Efficacy of the compounds of the present invention in the agonist and synergy assays was calculated as the maximum response obtained over the range of the dose response curve relative to the maximum response obtained by the reference agonist. Antagonist efficacy was determined as a function (%) of maximal inhibition.
To examine the effects of the compounds of the present invention on the transcriptional properties of the RXR:PPARγ, a heterodimer cotransfection assay as described above was employed.

db/db mouse = db/db mouse study (rodent model of Type II diabetes); conditions: for insulin sensitizing activity with thyroid axis suppression and triglyceride elevations: rodent models of Type II Diabetes; for inhibition in vivo at 30 mg/kg: Mus musculus, po, 168 h, read-out: db/db mouse Glu. (D7); for db/db mouse Trigs. (D3): plasma triglycerides as % of control values, day 3, 30 mg/kg/day
Experimental: Mice (obtained from Jackson Laboratory), ZDF rats (obtained from Genetic Models Inc.) and fa/fa rats (obtained from either Charles River, or Harlan) were maintained on 12-hour light/dark cycle. […] Compounds were administered at the specified doses by oral gavage on the morning of each day of any experiment. Blood samples were obtained 3 hours after dosing from fed animals under anesthesia and collected into heparinized capillary tubes from the tail vein.

RXRα = target: T2, RXRα (Homo sapiens, UniProt P19793); assay: RXRα binding (competition with tritiated LGD1069)
T2 sequence (P19793 1-462): T1 sequence (P19793 1-462)
Experimental: Non-specific binding was defined as that binding remaining in the presence of 500 nM of the appropriate unlabelled compound. At the end of the incubation period, bound ligand was separated from free. The amount of bound tritiated retinoid was determined by liquid scintillation counting of an aliquot (700 μL) of the supernatant fluid or the hydroxylapatite pellet.
After correcting for non-specific binding, IC50 values were determined. […] The IC50 value was determined graphically from a log-logit plot of the data. The Ki values were determined by application of the Cheng-Prussof equation to the IC50 values, the labeled ligand concentration and the Kd of the labeled ligand.

RXRα homodimer (RXR:RXR) = target: T3, RXRα homodimer (RXR:RXR) (Homo sapiens, UniProt P19793); assay: RXR homodimer co-transfection assay in CV-1 cells; assay type: cell-based; conditions: CV-1, read-out: RXR:RAR CV-1 (%) Ag.
T3 sequence (P19793 1-462): T1 sequence (P19793 1-462)
Description: In the co-transfection assay, cloned cDNA for one or more IRs (e.g., human RARα, RXRα, or PPARγ), alone or in combination (i.e. for heterodimer assays) under the control of a constitutive promoter (e.g., the SV 40, RSV or CMV promoter) is introduced by transfection (a procedure to introduce exogenous genes into cells) into a background cell substantially devoid of endogenous IRs. These introduced gene(s) direct the recipient cells to make the IR protein(s) of interest. A further gene is also introduced (co-transfected) into the same cells in conjunction with the IR gene(s). This further gene, comprising the cDNA for a reporter protein, such as firefly luciferase (LUC), controlled by an appropriate hormone responsive promoter containing a hormone response element (HRE). This reporter plasmid functions as a reporter for the transcriptional-modulating activity of the target IR(s). Thus, the reporter acts as a surrogate for the products (mRNA then protein) normally expressed by a gene under control of the target receptor(s) and their native hormone(s).
Exposing the transfected cells to an agonist ligand compound increases reporter activity in the transfected cells. This activity can be conveniently measured, e.g., by increasing luciferase production and enzymatic activity, which reflects compound-dependent, IR-mediated increases in reporter transcription. […] Increasing concentrations of an antagonist will decrease the reporter signal (e.g., luciferase production). The co-transfection assay is therefore useful to detect both agonists and antagonists of specific IRs. Furthermore, it determines not only whether a compound interacts with a particular IR, but whether this interaction mimics (agonizes) or blocks (antagonizes) the effects of native or synthetic regulatory molecules on target gene expression, as well as the specificity and strength of this interaction.
The receptor expression plasmid was cotransfected along with a reporter plasmid at 50 ng/well, the internal control plasmid pRS-β-Gal at 50 ng/well and filler DNA, pGEM, at 90 ng/well.
Six hours after transfection, media was removed and the cells were washed with phosphate-buffered saline (PBS). Media containing compounds of the present invention in concentrations ranging from 10^−10 to 10^−5 M were added to the cells. […] Retinoids were dissolved in dimethylsulfoxide for use in the transcriptional activation assays. Two to three replicates were used for each sample. Transfections and subsequent procedures were performed on a Biomek 1000 automated workstation.
After 40 hours, the cells were washed with PBS, lysed with a detergent-based buffer and assayed for LUC and β-Gal activities using a luminometer or spectrophotometer, respectively. For each replicate, the normalized response (NR) was calculated as: […]
The mean and standard error of the mean (SEM) of the NR were calculated. Data were plotted as the response of the compound compared to the reference compounds over the range of the dose-response curve. […] Antagonist activity was determined by testing the amount of LUC expression in the presence of the RXR agonists described above at the EC50 concentration for such known compounds. […] In addition, the efficacy of antagonists was determined as a function (%) of maximal inhibition.

RXRα:RAR heterodimer = target: T4, RXRα:RAR heterodimer (Homo sapiens, UniProt P19793); assay: RXR:RAR heterodimer co-transfection assay in CV-1 cells; assay type: cell-based
T4 construct: expressed in transfected cells; host or cells: CV-1 cells
T4 sequence (P19793 1-462): T1 sequence (P19793 1-462)
Experimental: as §1, §2
However, when RAR is occupied, typical RXR agonists activate the heterodimer. […] To examine the effects of the compounds of the present invention on the transcriptional properties of the RXR:RAR heterodimer, a heterodimer cotransfection assay as described above was employed.

[1] = Table 2, from IC50 by Cheng-Prussof equation, tritiated LGD1069, read-out: Bind RXRα Ki
[2] = CV-1, read-out: RXR:RAR CV-1 (%) Ag.
[3] = Table 2, maximal response in presence of 100 nM BRL49653 relative to BRL49653 alone

Row | Compound | insulin sensitizing activity with thyroid axis suppression and triglyceride elevations (db/db mouse) | inhibition in vivo at 30 mg/kg (db/db mouse) [%] | db/db mouse Trigs. (D3) (db/db mouse) [%] | Ki (RXRα; [1]) [nM] | Emax (RXRα homodimer (RXR:RXR)) [%] | Emax (RXRα:RAR heterodimer; [2]) [%] | also measured
1 | CN(CCOc1ccc(CC2SC(=O)NC2=O)cc1)c1ccccn1 (centres unmarked) [BRL 49653, reference compound] |  |  |  |  |  |  | RXRα:PPARγ Heterodimer Cotransfection Assay Agonist Efficacy (%) (RXRα:PPARγ heterodimer; maximal response relative to response of BRL 49653): 100%
2 | CCCCCOc1c(\C(C)=C/C=C/C(C)=C/C(=O)O)cc(C(C)C)cc1C(C)C [Compound L7] | maintain the desirable insulin sensitizing activity and eliminate or reduce both the suppression of the thyroid axis and triglyceride elevations; also recorded: maintain the desirable insulin sensitizing activity and minimize both the suppression of the thyroid axis and triglyceride elevations |  |  |  |  |  | 
3 | CCCOc1c(C2=C(/C=C/C(C)=C/C(=O)O)CCC2)cc(C(C)C)cc1C(C)C [Compound L8] | maintain the desirable insulin sensitizing activity and minimize both the suppression of the thyroid axis and triglyceride elevations |  |  |  |  |  | 
4 | CCCCOc1c(C2=C(/C=C/C(C)=C/C(=O)O)CCC2)cc(C(C)C)cc1C(C)C [Compound L9] | maintain the desirable insulin sensitizing activity and minimize both the suppression of the thyroid axis and triglyceride elevations |  |  |  |  |  | 
5 | C/C(=C/C=C/C(C)=C/C(=O)O)c1cc(C(C)(C)C)cc(C(C)(C)C)c1OCC(F)F [Compound L13] | maintain the desirable insulin sensitizing activity and minimize both the suppression of the thyroid axis and triglyceride elevations | 54 | 109 |  |  |  | 
6 | CCOc1c(\C(C)=C/C=C/C(C)=C/C(=O)O)cc(C(F)(F)C(F)(F)F)cc1C(C)C [Compound L15] | maintain the desirable insulin sensitizing activity and minimize both the suppression of the thyroid axis and triglyceride elevations | 80 | 156 | 6 | 44 | 1 | PPARγ CV-1 (%) Synergy (RXRα:PPARγ heterodimer): 99%
7 | CCc1cc(-c2ccsc2/C=C/C(C)=C/C(=O)O)c(OCCCC(F)(F)F)c(C(C)(C)C)c1 [Compound L16] | maintain the desirable insulin sensitizing activity and minimize both the suppression of the thyroid axis and triglyceride elevations | 37 | 79 |  | 1 | 2 | Ki (RXRα): 2 nM; PPARγ CV-1 (%) Synergy (RXRα:PPARγ heterodimer; [3]): 64%
8 | CCc1cc(-c2ccsc2/C=C/C(C)=C/C(=O)O)c(OCCCF)c(C2CCCC2)c1 [Compound L17] | maintain the desirable insulin sensitizing activity and minimize both the suppression of the thyroid axis and triglyceride elevations | 29 | 75 |  | 3 | 4 | Ki (RXRα): 8 nM; PPARγ CV-1 (%) Synergy (RXRα:PPARγ heterodimer; [3]): 88%
9 | CCC(C)(C)c1cc(\C(C)=C/C=C/C(C)=C/C(=O)O)c(OCC(F)F)c(C(C)(C)CC)c1 [Compound L18] | maintain the desirable insulin sensitizing activity and minimize both the suppression of the thyroid axis and triglyceride elevations | 45 | 134 | 29 | 2 | 1 | PPARγ CV-1 (%) Synergy (RXRα:PPARγ heterodimer; [3]): 69%
10 | C/C(=C/C=C/C(C)=C/C(=O)O)c1cc(-c2ccccc2F)cc(C(C)C)c1OCC(F)F [Compound L19] | maintain the desirable insulin sensitizing activity and minimize both the suppression of the thyroid axis and triglyceride elevations | 68 | 187 | 1 | 3 | 2 | PPARγ CV-1 (%) Synergy (RXRα:PPARγ heterodimer): 47%
11 | C/C(=C/C=C/C(C)=C/C(=O)O)c1cc(C(C)(C)C)cc(C(C)(C)C)c1OCC(F)(F)F [Compound L23] |  | 53 |  | 27 | 1 | 7 | 
12 | C/C(=C\c1ccc(C(=O)O)cc1)c1ccc2c(c1)C(C)(C)CCC2(C)C [TTNPB, (E)-4-[2-(5,6,7,8-tetrahydro-5,5,8,8-tetramethyl-2-naphthalenyl)-1-propenyl]benzoic acid, reference compound] |  |  |  |  |  |  | Emax (RXRα:RAR heterodimer; CV-1, read-out: RXRα:RAR Heterodimer Cotransfection Assay Agonist Efficacy (%)): 115%; agonist activity on the RXR:RAR heterodimer (RXRα:RAR heterodimer; compound alone): strongly transactivate
13 | CN(C)C(=N)N=C(N)N [metformin, reference compound] |  |  |  |  |  |  | efficacy over 3 subsequent weeks (db/db mouse; 7 week old db/db mice, 300 mg/kg daily oral gavage): decreases; plasma glucose (db/db mouse; 7 week old db/db mice, 300 mg/kg daily oral gavage, maximum effect after first week): lowers plasma glucose
